Results as given in patent US20060257484A1, “Combination of tramadol and substances that comprise gabapentin” (priority 2005, published 2006).
Structures can show the parent of a compound that is named as a salt. Where two headings read alike, the source gives them in different places.

Key:
[1] = system: Chung model; conditions: Chung model disclosed in Codd; cited from earlier work
[2] = cited from earlier work
[3] = higher doses increase less than expected; cited from earlier work
[4] = single oral dose 25 mg/kg gabapentin, 6 male Sprague-Dawley rats; cited from earlier work
[5] = Expected human pharmacokinetic parameters at 200 mg tramadol per day (model matching rat AUCinf ratio); type: in vivo; conditions: 200 mg tramadol per day for humans; for expected Cavg: gabapentin at 6.77 fold AUC ratio (daily dose 505 mg gabapentin equivalent)
Excerpt: Additional ranges can be determined for other species.

[6] = Expected pharmacokinetic parameters in rat after tramadol HCl plus gabapentin (model)
Excerpt: In another modeling approach, the dose of gabapentin for humans can be evaluated in order to match the AUCinf ratio for gabapentin to tramadol and O-demthyltramadol in rat.

[7] = single oral dose 10 mg/kg tramadol HCl, 8 male Sprague-Dawley rats, cited from earlier work
[8] = steady state, cited from earlier work
[9] = after five days of tramadol 100 mg twice daily
[10] = Immediate Release Capsule, 50 mg four times daily
[11] = Modified Release Formulation, 200 mg once daily
[12] = single administration of 10 mg/kg tramadol HCl and 5 mg/kg gabapentin, assuming no pharmacokinetic interaction

In the case of `COc1cccc(C2(O)CCCCC2CN(C)C)c1` (stereo not shown) [tramadol HCl], the ED50 [1] is given as 94.47 mg/kg.
For `COc1cccc(C2(O)CCCCC2CN(C)C)c1` (racemic) [tramadol], the “AUC0-12 at steady state” value [2, 9] is given as 2970 ng·h/mL, the “Cmax at steady state” value [2, 9] is given as 414 ng/mL and the “Cmax and AUCinf versus dose” value ([2]; tramadol 400 mg given) is given as “proportional to the dose”.
In the case of `NCC1(CC(=O)O)CCCCC1` [Gabapentin, gabapentin], the “dose up to which serum concentrations increase linearly” value [3] is listed as “up to 1800 mg/d”, the ED50 [1] is listed as 439.50 mg/kg and the AUCinf [4] is listed as 32800 ng·h/mL. The Cmax [4] was 6850 ng/mL, the Tmax [4] was 108 min and the “expected Cavg” value [5] was 1890 ng/mL. The “AUCinf for gabapentin relative to that for (±) tramadol and (±) O-demthyltramadol” value ([6]; Chung model (rat)) was 6.77 fold.
For `CN(C)CC1CCCCC1(O)c1cccc(O)c1` (single isomer, unassigned; (-)) [(−) M1, trans-O-demethyltramadol], the AUCinf ([7]; 10 mg/kg) is listed as 21178 (1987) μg L^−1 min, the Cmax ([7]; 10 mg/kg) is listed as 195 (63) μg/L and the Tmax ([7]; 10 mg/kg) is listed as 41 (24) min. For the same compound, the “expected Cmax” value [5] was 43 ng/mL, the “expected Cmin” value [5] was 22 ng/mL and the “expected Cavg” value [5] was 12 ng/mL. For the same compound, the AUC0-24 [8, 10] was 690 ng·h/mL, the Cmax [8, 10] was 43 ng/mL and the Cmin [8, 10] was 22 ng/mL. For the same compound, the AUC0-24 [8, 11] was 745 (286) ng * h/ml, the Cmax [8, 11] was 46 (18) ng/mL and the Cmin [8, 11] was 16 (8) ng/mL.
With `CN(C)CC1CCCCC1(O)c1cccc(O)c1` (racemic) [(±) M1, trans-O-demethyltramadol] the “expected AUCinf” value [6, 12] was 523 ng·h/mL and the “expected Cmax” value [6, 12] was 331 ng/mL.
In the case of `COc1cccc([C@@]2(O)CCCC[C@@H]2CN(C)C)c1` [(+)-trans-T], the AUCinf [7] is listed as 21501 µg·min/L, the Cmax [7] is listed as 193 µg/L and the Tmax [7] is listed as 22 min. For the same compound, the “expected Cmax” value [5] was 190 ng/mL, the “expected Cmin” value [5] was 111 ng/mL and the “expected Cavg” value [5] was 143 ng/mL. For the same compound, the AUC0-24 [8, 10] was 3429 ng·h/mL, the Cmax [8, 10] was 190 ng/mL and the Cmin [8, 10] was 111 ng/mL. The AUC0-24 [8, 11] was 3763 (1275) ng * h/ml, the Cmax [8, 11] was 239 (81) ng/mL and the Cmin [8, 11] was 81 (36) ng/mL.
For `COc1cccc(C2(O)CCCCC2CN(C)C)c1` (single isomer, unassigned; (-)) [(−)-trans-T], the AUCinf [7] is given as 5257 µg·min/L, the Cmax [7] is given as 74 µg/L and the Tmax [7] is given as 22 min. For the same compound, the “expected Cmax” value [5] was 157 ng/mL, the “expected Cmin” value [5] was 86 ng/mL and the “expected Cavg” value [5] was 113 ng/mL. The AUC0-24 [8, 10] was 2719 ng·h/mL, the Cmax [8, 10] was 157 ng/mL and the Cmin [8, 10] was 86 ng/mL. The AUC0-24 [8, 11] was 3005 (1120) ng * h/ml, the Cmax [8, 11] was 199 (75) ng/mL and the Cmin [8, 11] was 62 (30) ng/mL.
In the case of `CN(C)CC1CCCCC1(O)c1cccc(O)c1` (single isomer, unassigned; (+)) [(+) M1, trans-O-demethyltramadol], the AUCinf ([7]; 10 mg/kg) is given as 16242 (2648) μg L^−1 min, the Cmax ([7]; 10 mg/kg) is given as 136 (32) μg/L and the Tmax ([7]; 10 mg/kg) is given as 34 (21) min. The “expected Cmax” value [5] was 36 ng/mL, the “expected Cmin” value [5] was 21 ng/mL and the “expected Cavg” value [5] was 11 ng/mL. For the same compound, the AUC0-24 [8, 10] was 644 ng·h/mL, the Cmax [8, 10] was 36 ng/mL and the Cmin [8, 10] was 21 ng/mL. The AUC0-24 [8, 11] was 704.12 (327.09) ng * h/ml, the Cmax [8, 11] was 42 (18.4) ng/mL and the Cmin [8, 11] was 16.71 (10.41) ng/mL.
